Experiments:
p38 MAPK/MK2 pathway = experiment: Immunoblot of p38 MAPK/MK2 activation after DNA-damaging drugs in U2OS cells; format: cell-based, human
Procedure: (§1) 14-3-3 pull-down assays, immunoblotting, and immunofluorescence. U2OS cells were lysed in lysis buffer: 50 mM Tris/HCl, pH7.8, 150 mM NaCl, 1.0% NP-40, 5 mM EDTA, 2 mM DTT, 8 μg/ml pepstatin, 8 μg/ml aprotinin, 8 μg/ml leupeptin, 2 mM Na3VO4, 10 mM NaF, 1 μM microcystin for twenty minutes at 4° C. Clarified lysates (0.5-2 mg protein) were incubated with 20 μL glutathione beads or amylose beads containing 10-20 μg 14-3-3-GST or 14-3-3-MBP, respectively, for 120 minutes at 4° C. Following washing, lysates and bead-bound proteins were analysed by SDS-PAGE, followed by transfer to PVDF membranes and immunoblotted with the indicated antibodies. For immunofluorescence experiments, U2OS cells were seeded onto 18 mm^2 coverslips, irradiated or mock-treated, fixed, extracted, and immunostained as described previously (Clapperton et al., Nat. Struct. Mol. Biol., 11:512-518, 2004).

Chk2 = Chk2 (Homo sapiens, UniProt O96017); conditions: Chk1 versus Chk2; cited from earlier work
Chain of Chk2 (O96017 whole entry, species assumed): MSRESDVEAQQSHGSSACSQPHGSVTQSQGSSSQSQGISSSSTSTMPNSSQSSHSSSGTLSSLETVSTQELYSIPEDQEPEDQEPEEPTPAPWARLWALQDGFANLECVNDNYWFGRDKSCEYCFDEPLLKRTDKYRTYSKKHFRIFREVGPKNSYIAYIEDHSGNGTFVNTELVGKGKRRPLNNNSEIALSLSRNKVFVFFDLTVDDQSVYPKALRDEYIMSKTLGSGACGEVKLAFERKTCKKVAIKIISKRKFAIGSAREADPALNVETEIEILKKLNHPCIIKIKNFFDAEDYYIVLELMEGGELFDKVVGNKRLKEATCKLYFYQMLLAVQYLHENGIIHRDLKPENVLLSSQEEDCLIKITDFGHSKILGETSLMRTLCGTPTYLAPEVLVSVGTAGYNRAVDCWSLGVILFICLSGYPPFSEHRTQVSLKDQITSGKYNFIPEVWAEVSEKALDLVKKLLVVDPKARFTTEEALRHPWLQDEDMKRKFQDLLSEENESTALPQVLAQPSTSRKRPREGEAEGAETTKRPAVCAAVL

[1] = system: Cdc25C Ser-216 phosphorylation; conditions: Chk1-depleted cells, low doses of UCN-01 (~300 nM); cited from earlier work
MAPKAP kinase-2 [2] = biological target: T1, MAPKAP kinase-2 (Homo sapiens, UniProt P49137); experiment: Phosphorylation of hsp-27 on Ser-82 after heat shock in U2OS cells (immunoblot); format: cell-based; set-up: endogenous in cells; host or cells: U2OS cells; conditions: control luciferase shRNA U2OS cells, 42° C. for two hours, 250 nM UCN-01
T1 sequence (P49137 whole entry): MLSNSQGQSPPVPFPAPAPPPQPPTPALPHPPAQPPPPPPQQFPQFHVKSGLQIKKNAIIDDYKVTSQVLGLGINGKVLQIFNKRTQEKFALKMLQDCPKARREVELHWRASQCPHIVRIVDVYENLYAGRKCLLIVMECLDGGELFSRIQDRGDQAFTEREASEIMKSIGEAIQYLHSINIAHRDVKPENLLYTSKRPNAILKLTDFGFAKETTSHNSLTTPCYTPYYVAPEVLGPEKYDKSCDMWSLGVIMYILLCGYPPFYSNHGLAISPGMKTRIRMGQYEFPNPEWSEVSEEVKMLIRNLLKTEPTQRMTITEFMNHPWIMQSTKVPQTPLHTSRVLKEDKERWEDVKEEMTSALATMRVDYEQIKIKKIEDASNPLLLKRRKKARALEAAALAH
Procedure: as §1
Activation of MK2 by cisplatin, camptothecin, and doxorubicin is strikingly similar to the activation profile reported for Chk1. […] U2OS cells depleted of Chk1 using siRNA were exposed to cisplatin and doxorubicin, and analyzed for activation of MK2. […] The IC50 value we measured for Chk1 is in good agreement with previously published data. […]

[3] = system: mouse embryonic fibroblasts (MEFs); experiment: Colony survival assay in p53 wild-type and p53−/− MEFs; format: cell-based; conditions: MEFs that lacked p53; not seen in p53 wild-type MEFs
Procedure: FIGS. 29A-29B are graphs showing the results of a colony survival assay in which mouse embryonic fibroblasts (MEFs) were treated with increasing doses of doxorubicin or cisplatin for eight hours, rinsed twice with PBS and once with media, and re-plated at an initial density of 5,000 cells/10 cm^2 dish. After eleven days, the number of colonies on the plate was counted and normalized to the number of colonies formed by the same cell type in the absence of treatment with chemotherapeutic drugs. RNA interference using short hairpin RNAs was used with both the p53 wild-type MEFs and the p53^−/− MEFs to knock down the levels of MAPKAP kinase-2 (MK2 shRNA). Short hairpin RNAs against luciferase (luciferase shRNA) were used as a control. […] FIG. 29C is a series of Western blots using the indicated antibodies. These blots verify that p53 polypeptide, and the known p53-responsive gene product p21, is induced by DNA damage only in the p53 wild-type cells (lanes 2, 3, 5, and 6), but not in the p53^−/− cells (lanes 7-12). […]
The p53 tumor suppressor protein plays an important role in the cellular response to DNA damage by transcriptionally upregulating the Cdk inhibitor p21 to induce a G1 and G2 arrest. […] Cells were infected with lentiviruses delivering shRNAs against luciferase (control) or MK2 and analyzed 6 days later (FIG. 29C). […] Only minimal amounts of the p53 inducer protein p19ARF were detected. […]

U2OS cells = experiment: FACS cell cycle analysis (PI, phospho-histone H3) in U2OS cells; format: cell-based, human; conditions: untreated U2OS cells blocked in mitosis with nocodazole (100 nM, eighteen hours)
Procedure: Asynchronous MAPKAP kinase-2 or luciferase shRNA knockdown cells were mock treated or exposed to doxorubicin for thirty hours, and cell cycle progression was monitored by FACS. In one set of experiments, the spindle poison nocodazole was added to the media three hours after addition of doxorubicin, to cause any cells progressing through the cell cycle to arrest in mitosis. DNA content was monitored by PI staining; phospho-histone-H3 staining was used as an indicator of mitotic entry. As shown in the left panels of FIG. 14A, treatment of control luciferase shRNA knockdown cells with doxorubicin led to the accumulation of cells with 4N DNA content, and a lack of phospho-histone-H3 staining in either the absence or presence of nocodazole. The cells expressing the luciferase shRNAs behaved identically to the untransfected doxorubicin-treated control U2OS cell population (FIG. 24B), with the prominent 4N DNA component and the absence of phospho-histone-H3 staining indicative of an intact G2/M checkpoint.
In contrast to the G2/M checkpoint response observed in doxorubicin-treated cells, treatment with the DNA intra-strand cross-linker cisplatin caused U2OS cells to predominantly accumulate in the G1 and S phases of the cell cycle over the subsequent thirty hours (FIG. 24C). RNA interference was used to investigate the role of MAPKAP kinase-2 in this process. […] Strikingly, when nocodazole was added three hours following cisplatin addition, the MAPKAP kinase-2 depleted cells accumulated in a 4N DNA containing peak with ˜42% of the cells staining strongly for phospho-histone H3. Identical results were obtained in cells treated with a second unrelated siRNA sequence against MAPKAP kinase-2.
FACS analysis. UV irradiation was performed at 254 nm (UV-C) using a Stratalinker 2400 (Stratagene). U2OS cells were fixed in 70% ethanol overnight at −20° C., permeabilized with PBS containing 0.2% Triton X-100 for twenty minutes at 4° C., blocked with 2% FBS in PBS, and incubated with 1 μg of anti-phospho-histone H3 per 10^6 cells for sixty minutes on ice. […]

MAPKAP kinase-2 [4] = biological target: T1, MAPKAP kinase-2; experiment: Kinetics of in vitro phosphorylation of MK2tides by MAPKAP kinase-2; format: biochemical; set-up: purchased Upstate; conditions: peptide as substrate of MAPKAP kinase-2
Source text: To verify the peptide library screening results, individual peptides (MK2tides) containing the optimal MAPKAP kinase-2 consensus motif LQRQLSI (SEQ ID NO: 16), or mutant versions with Ala substituted at each position in the motif, were synthesized and used for kinetic analysis (FIGS. 3B and 3C). […] The rank order of importance of key residues is Arg-3>Leu-5≈Ile+1>[…]. The optimal MK2tide had neither the lowest Km nor the highest Vmax, but rather had the highest Vmax/Km ratio, consistent with the fact that the peptide library screening approach selects substrates on the basis of optimal Vmax/Km, rather than low Km or high Vmax alone. […]
(§2) The sequences of the p38 optimal peptide and the p47phox peptide were KKAZGPQGPQSPIE (SEQ ID NO: 22) and KKAZGPQSPGSPLE (SEQ ID NO: 23), respectively. For 14-3-3 pulldowns of Cdc25B following in vitro phosphorylation by p38 or MAPKAP kinase-2, 2.0 μg of Cdc25B was incubated with 10-fold excess 14-3-3-MBP and analyzed by autoradiography. […] Samples were analyzed by SDS-PAGE followed by transfer to nitrocellulose for autoradiography and immunoblotting. The rate of p38α phosphorylation of isolated peptides and full-length p47phox proteins was determined by scintillation counting using peptide concentrations of 100, 400, and 1400 μM, and protein concentrations of 1, 5, 10 and 15 μM, with time points taken at five, ten, and twenty minutes. […]

p38α SAPK = p38α SAPK (Homo sapiens, UniProt Q16539); experiment: Kinetics of in vitro substrate phosphorylation by p38α SAPK; format: biochemical; conditions: GST-tagged full-length protein as substrate
Chain of p38α SAPK (Q16539 whole entry): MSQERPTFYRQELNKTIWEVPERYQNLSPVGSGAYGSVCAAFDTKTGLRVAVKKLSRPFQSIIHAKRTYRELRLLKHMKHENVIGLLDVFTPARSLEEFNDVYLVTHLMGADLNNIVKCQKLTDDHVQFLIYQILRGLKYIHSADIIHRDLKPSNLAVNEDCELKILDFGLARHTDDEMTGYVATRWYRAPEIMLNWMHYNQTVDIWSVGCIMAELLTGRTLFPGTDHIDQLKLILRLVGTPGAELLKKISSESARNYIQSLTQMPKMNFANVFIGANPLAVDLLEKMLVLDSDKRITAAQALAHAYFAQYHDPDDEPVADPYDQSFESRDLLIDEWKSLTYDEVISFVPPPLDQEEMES
Source text: Wild-type and mutant versions of GST-tagged full-length p47phox protein, rather than isolated peptides, were then used as substrates for in vitro phosphorylation reactions. The wild-type full-length p47phox protein was rapidly phosphorylated by p38α SAPK (FIGS. 1C and 1D). […] Simultaneous mutation of both Ser345 and Ser348 to Ala eliminated phosphorylation of p47phox by p38 SAPK altogether.
as §2, with “autoradiography. For kinetic measurements, the reactions were terminated by the addition of an equal volume of 0.5 percent phosphoric acid, and 5 μl was spotted onto p81 paper.” for “autoradiography.”

C[S+]([O-])c1ccc(-c2nc(-c3ccncc3)c(-c3ccc(F)cc3)[nH]2)cc1 (stereo not shown) [SB203580]
MK2 activation by DNA damaging agents (p38 MAPK/MK2 pathway): completely abolished MK2 activation

CC[C@@]1(O)C(=O)OCc2c1cc1n(c2=O)Cc2cc3ccccc3nc2-1 [camptothecin]
time to MK2 activation (reduction in electrophoretic mobility, pThr-344) (p38 MAPK/MK2 pathway; U2OS cells, 10 μM drug): within four hour

CN[C@@H]1C[C@H]2O[C@@](C)([C@@H]1OC)n1c3ccccc3c3c4c(c5c6ccccc6n2c5c31)C(=O)N[C@H]4O [UCN-01, 7-hydroxystaurosporin]
IC50 for Chk1 lower than that for Chk2 (Chk2): ~1000 fold | phosphorylation of Cdc25C on Ser-216 [1]: lost | phosphorylation of hsp-27 on Ser-82 (MAPKAP kinase-2 [2]): completely abrogated

MK2 shRNA: lentivirally delivered short hairpin RNA against murine MAPKAP kinase-2 (SEQ ID NO: 26) (TCGATGCGTGTTGACTATGATTCAAGAGATCATAGTCAACACGCATCGTTTTTTC)
sensitivity to doxorubicin and cisplatin (colony survival) [3]: increased sensitivity

COC(=O)Nc1nc2ccc(C(=O)c3cccs3)cc2[nH]1 [nocodazole]
cells staining for phospho-histone H3 (U2OS cells): 42%

MK2tide: peptide containing the optimal MAPKAP kinase-2 consensus motif LQRQLSI (SEQ ID NO: 16)
Km value relative to the best MAPKAP kinase-2 peptide substrate known to date (HSP27-derived sequence) (MAPKAP kinase-2 [4]): two-fold lower

B1: wild-type p47phox: GST-tagged full-length p47phox protein, cytosolic component of NADPH oxidase, used as p38 SAPK substrate (protein)
chain: MGDTFIRHIALLGFEKRFVPSQHYVYMFLVKWQDLSEKVVYRRFTEIYEFHKTLKEMFPIEAGAINPENRIIPHLPAPKWFDGQRAAENRQGTLTEYCSTLMSLPTKISRCPHLLDFFKVRPDDLKLPTDNQTKKPETYLMPKDGKSTATDITGPIILQTYRAIANYEKTSGSEMALSTGDVVEVVEKSESGWWFCQMKAKRGWIPASFLEPLDSPDETEDPEPNYAGEPYVAIKAYTAVEGDEVSLLEGEAVEVIHKLLDGWWVIRKDDVTGYFPSMYLQKSGQDVSQAQRQIKRGAPPRRSSIRNAHSIHQRSRKRLSQDAYRRNSVRFLQQRRRQARPGPQSPGSPLEEERQTQRSKPQPAVPPRPSADLILNRCSESTKRKLASAV
modifications: left off: a dimerising Fc or GST
notes: GST-tagged full-length p47phox protein, cytosolic component of NADPH oxidase, used as p38 SAPK substrate
Vmax for p38 SAPK phosphorylation (p38α SAPK): 36.6 nmol/min/µg | Km (p38α SAPK; read-out: Km for p38 SAPK phosphorylation): 6 µM

— US8440610B2, “Mapkap kinase-2 as a specific target for blocking proliferation of P53-defective cells” (Massachusetts Institute of Technology, priority 2004, dated 2013)
